Tests used:
[1] = test system: INS-1 cells; assay: Insulin secretion assay in INS-1 cells (glucose at 4.2 mM); assay type: cell-based; conditions: Rattus norvegicus, INS1, glucose 4.2 mM, 1 h incubation; for activity at 10 µM: compound 10 μM, read-out: Insulin secretion, % of ctrl at 10 μM; for activity at 50 µM: compound 50 μM, read-out: Insulin secretion, % of ctrl at 50 μM
Method: Culture of Pancreatic INS-1 Cells
INS-1 cells were cultured in complete medium, RPMI 1640 containing 1 mM sodium pyruvate, 50 μM 2-mercaptoethanol, 2 mM glutamine, 10 mM HEPES, 100 IU/mL penicillin, and 100 μg/mL streptomycin (CM), supplemented with 10 mM glucose, and 10% (vol/vol) heat-inactivated fetal calf serum (FCS), as described by Asfari et al. (Endocrinology 130: 167-178, 1992).
INS-1 cells were plated and cultured in 48-well plates. After 2 days of culture, the medium was removed and cells were cultured for 24 h with a medium change to 5 mM glucose, 1% FCS. The cells were then washed with Krebs-Ringer Bicarbonate HEPES buffer (KRBH; 135 mM NaCl; 3.6 mM KCl; 5 mM NaHCO3; 0.5 mM NaH2PO4;
0.5 mM MgCl2; 1.5 mM CaCl2 and 10 mM HEPES; pH 7.4) 0.1% BSA containing 2.8 mM glucose and preincubated for 30 min at 37° C. in the same buffer. The cells were then washed twice and incubated for 1 h in KRBH 0.1% BSA containing 4.2 mM glucose and different concentrations of the tested molecule. Insulin concentration in the collected supernatants was measured with ELISA using rat insulin antibody (Insulin Rat Elit PLUS, cat. ref 10-1145-01).
Insulin secretion results are expressed in % of control (glucose 4.2 mM).
Insulin Secretion in INS-1 Cells (Glucose at 4.2 mM)

[2] = test system: diabetic N0STZ rat islets; assay: Insulin secretion in diabetic N0STZ rat islets; assay type: cell-based; conditions: 90 min, mean ± SEM
Method: Insulin Secretion in Diabetic N0STZ Rat Islets. Materials and Methods. Islets Isolation and Treatments.
14±3 weeks non-fasted N0STZ (PORTHA et al., 1974) male rats (Charles Rivers-Domaine des Oncins, I'Arbresle, France) were anesthetised with sodium pentobarbital (Nembutal®: 45 mg/kg in 5 ml/kg administered intra peritoneally) and body temperature was maintained with a heat lamp.
Rat pancreatic islets of Langerhans were isolated from the pancreas of 8 rats by collagenase P (Boehringer, Meylan, France) digestion. Islets were purified by sedimentation in Hanks balanced salt solution [NaCl (137 mM); KCl (5.36 mM); MgSO4, 7H2O (0.81 mM); Na2HPO4, 12H2O (0.34 mM); KH2PO4 (0.44 mM); CaCl2, 2H2O (1.26 mM); NaHCO3 (4.17 mM)] followed by Ficoll gradient separation.
Islets were then hand-picked under stereoscopic microscope and batches of 3 islets were incubated for 90 minutes at 37° C. with continuous shaking under a humidified condition (95% O2, 5% CO2) in 1 ml of Krebs/Hepes pH 7 solution [NaCl (115 mM), NaHCO3 (24 mM), KCl (5 mM), MgCl2 (1 mM), CaCl2, 2H2O (1 mM), 0.2% of Bovine serum albumin (Fraction V, fatty acid free, Boehringer, Mannheim), 10 mM Hepes] containing the required glucose or compound concentration.
Compounds were dissolved in DMSO at 2.10-2M stock solutions. They were then diluted at the required concentration in Krebs/Hepes buffer containing the required glucose concentration.
At the end of incubation, media was collected and insulin levels were measured using ELISA (EUROBIO, Courtaboeuf, France).
Islets were hand-picked and incubated in the presence of increasing concentrations of compounds in the presence of glucose at 2.8 or 8 mM. At the end of incubation, media was collected and insulin levels were measured using ELISA method. Results are expressed as % of glucose control (2.8 or 8 mM) and represent Means±SEM.

[3] = glucose 2.8 mM, compound 10−4 M

Row | SMILES | activity at 10 µM [1] | activity at 50 µM [1] | melting point | further results
1 | CCn1ccnc(S(=O)(=O)Cc2ccccc2)c1=O [Example 6, 3-benzylsulfonyl-1-ethylpyrazin-2(1H)-one] | 128% | 184% | – | –
2 | CCn1ccnc(S(=O)(=O)Cc2ccc(Cl)cc2)c1=O [Example 6-2, 3-[(4-chlorobenzyl)sulfonyl]-1-ethylpyrazin-2(1H)-one] | 142% | 276% | 115 to 118 °C | –
3 | CCCn1ccnc(S(=O)(=O)Cc2ccc(C)cc2)c1=O [Example 6-3, 3-[(4-methylbenzyl)sulfonyl]-1-propylpyrazin-2(1H)-one] | 144% | 207% | 128 to 130 °C | Insulin secretion, % of glucose control [2, 3]: 121 ± 7 % of glucose control; Insulin secretion, % of glucose control ([2]; glucose 8 mM, compound 10−4 M): 271 ± 5 % of glucose control; Insulin secretion, % of glucose control ([2]; glucose 8 mM, compound 10−5 M): 131 ± 5 % of glucose control; Insulin secretion, % of glucose control ([2]; glucose 8 mM, compound 10−6 M): 108 ± 5 % of glucose control; Insulin secretion, % of glucose control ([2]; glucose 8 mM, compound 10−7 M): 101 ± 6 % of glucose control
4 | CCCn1ccnc(S(=O)(=O)Cc2ccc(F)cc2)c1=O [Example 6-4, 3-[(4-fluorobenzyl)sulfonyl]-1-propylpyrazin-2(1H)-one] | 142% | 203% | 123 to 125 °C | –
5 | CCCn1ccnc(S(=O)(=O)Cc2ccccc2)c1=O [Example 6-5, 3-(benzylsulfonyl)-1-propylpyrazin-2(1H)-one] | – | – | 133 to 135 °C | –
6 | CCn1ccnc(S(=O)(=O)Cc2ccc(Br)cc2)c1=O [Example 6-6, 1-ethyl-3-[(4-bromobenzyl)sulfonyl]pyrazin-2(1H)-one] | 164% | 362% | 135 to 138 °C | –
7 | CCCn1ccnc(S(=O)(=O)Cc2ccc(Cl)cc2)c1=O [Example 10, 3-[(4-chlorobenzyl)sulfonyl]-1-propylpyrazin-2(1H)-one] | 155% | 331% | 125 to 128 °C | Insulin secretion, % of glucose control [2, 3]: 178 ± 7 % of glucose control; Insulin secretion, % of glucose control ([2]; glucose 8 mM, compound 10−4 M): 203 ± 11 % of glucose control; Insulin secretion, % of glucose control ([2]; glucose 8 mM, compound 10−5 M): 133 ± 7 % of glucose control; Insulin secretion, % of glucose control ([2]; glucose 8 mM, compound 10−6 M): 90 ± 4 % of glucose control; Insulin secretion, % of glucose control ([2]; glucose 8 mM, compound 10−7 M): 84 ± 7 % of glucose control
8 | CCCCn1ccnc(S(=O)(=O)Cc2ccccc2F)c1=O [Example 10-3, 1-butyl-3-[(2-fluorobenzyl)sulfonyl]pyrazin-2(1H)-one] | 108% | 236% | – | –
9 | CCCCn1ccnc(S(=O)(=O)Cc2cccc(C(F)(F)F)c2)c1=O [Example 10-4, 1-butyl-3-[(3-trifluoromethylbenzyl)sulfonyl]pyrazin-2(1H)-one] | 187% | 272% | – | –
10 | CCCCn1ccnc(S(=O)(=O)Cc2ccc(Cl)cc2)c1=O [Example 10-5, 1-butyl-3-[(4-chlorobenzyl)sulfonyl]pyrazin-2(1H)-one] | 153% | 261% | – | –
11 | CCCn1ccnc(S(=O)(=O)CCc2ccc(Cl)cc2)c1=O [Example 10-6] | 127% | 180% | – | –
12 | CCn1ccnc(S(=O)(=O)CCOc2ccc(OC)cc2)c1=O [Example 10-7, 1-ethyl-3-{[2-(4-methoxyphenoxy)ethyl]sulfonyl}pyrazin-2(1H)-one] | – | – | 100 to 103 °C | –
13 | CCn1cc(Br)nc(S(=O)(=O)Cc2ccc(Cl)cc2)c1=O [Example 13, 5-bromo-3-[(4-chlorobenzyl)sulfonyl]-1-ethylpyrazin-2(1H)-one] | – | – | 145 to 147 °C | –
14 | CCn1cc(-c2ccccc2)nc(S(=O)(=O)Cc2ccc(Cl)cc2)c1=O [Example 14, 3-[(4-chlorobenzyl)sulfonyl]-1-ethyl-5-phenylpyrazin-2(1H)-one] | – | – | 146 to 148 °C | –
15 | CCn1cc(-c2ccc(Cl)cc2)nc(S(=O)(=O)Cc2ccc(Cl)cc2)c1=O [Example 14-2, 3-[(4-chlorobenzyl)sulfonyl]-5-(4-chlorophenyl)-1-ethylpyrazin-2(1H)-one] | 181% | – | – | –
16 | CCn1cc(Cl)nc(SCC(=O)Nc2ccccc2)c1=O [Example 17, 2-[(6-chloro-4-ethyl-3-oxo-3,4-dihydropyrazin-2-yl)thio]-N-phenylacetamide] | – | – | 156 to 158 °C | –
17 | CCn1cc(Cl)nc(S(=O)(=O)CC(=O)Nc2ccccc2)c1=O [Example 18, 2-[(6-chloro-4-ethyl-3-oxo-3,4-dihydropyrazin-2-yl)sulfonyl]-N-phenylacetamide] | – | – | 178 to 180 °C | –
18 | CCn1cc(Cl)nc(S(=O)(=O)CC(=O)N2CCCCC2)c1=O [Example 18-2, 5-chloro-1-ethyl-3-[(2-oxo-2-piperidin-1-ylethyl)sulfonyl]pyrazin-2(1H)-one] | 159% | 213% | – | –
